We go through one compound from PubChem BioAssay AID623906 (Vanderbilt Specialized Chemistry Center, 2012).

The assay addresses Metabotropic glutamate receptor 4 (Rattus norvegicus) (UniProt P31423). Kind of assay: PubChem AID 623906. To be noted: rat mGlu4 cells, thallium flux, glutamate CRC fold shift, at 10 µM, stronger effect = higher value.

Chain of Metabotropic glutamate receptor 4 (Rattus norvegicus) (P31423 whole entry, looked up): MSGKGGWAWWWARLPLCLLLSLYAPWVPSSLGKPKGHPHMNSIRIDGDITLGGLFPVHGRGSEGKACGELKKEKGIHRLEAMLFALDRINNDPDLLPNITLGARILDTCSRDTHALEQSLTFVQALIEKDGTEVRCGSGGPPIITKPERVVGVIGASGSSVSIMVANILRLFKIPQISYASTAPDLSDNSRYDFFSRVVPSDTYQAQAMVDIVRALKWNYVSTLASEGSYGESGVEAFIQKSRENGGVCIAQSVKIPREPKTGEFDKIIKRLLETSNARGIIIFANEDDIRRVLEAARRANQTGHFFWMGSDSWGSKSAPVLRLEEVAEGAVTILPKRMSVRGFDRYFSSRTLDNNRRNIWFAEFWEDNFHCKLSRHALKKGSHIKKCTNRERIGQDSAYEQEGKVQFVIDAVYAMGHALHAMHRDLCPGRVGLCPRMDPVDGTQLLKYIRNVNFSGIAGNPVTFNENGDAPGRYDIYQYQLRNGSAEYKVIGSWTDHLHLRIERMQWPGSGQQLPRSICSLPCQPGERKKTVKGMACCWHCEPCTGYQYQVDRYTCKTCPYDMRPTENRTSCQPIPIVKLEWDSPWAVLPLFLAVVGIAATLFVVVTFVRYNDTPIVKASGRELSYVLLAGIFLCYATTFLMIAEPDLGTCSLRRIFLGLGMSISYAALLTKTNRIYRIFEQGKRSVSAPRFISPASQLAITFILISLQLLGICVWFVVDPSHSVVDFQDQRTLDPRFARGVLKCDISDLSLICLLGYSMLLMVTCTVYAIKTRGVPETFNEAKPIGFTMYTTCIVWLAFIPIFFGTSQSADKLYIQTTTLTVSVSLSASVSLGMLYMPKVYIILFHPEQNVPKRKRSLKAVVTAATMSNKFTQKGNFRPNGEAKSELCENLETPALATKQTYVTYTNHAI

`O=C(Nc1cccc(Cl)c1)c1ccccn1`: the fold shift is 16.5. Besides, the glutamate max response (glutamate max with compound) came out at 96.9%.
